Experimental findings from US20220289727A1, “ENZYME INHIBITORS” (KALVISTA PHARMACEUTICALS LIMITED, priority 2019, published 2022) are described below.

For one experiment, the target named is T1, Human FXIa (Homo sapiens, UniProt P03951).
T1 construct: Human FXIa (Enzyme Research Laboratories) was incubated; purchased Enzyme Research Laboratories
Put plainly: Determination of FXIa inhibitory activity in vitro (fluorogenic substrate Z-Gly-Pro-Arg-AFC). The class given is biochemical. The conditions noted are these: selectivity, 25° C., residual enzyme activity (initial rate).

The target of another experiment is T2, Human Factor XIIa (Homo sapiens, UniProt P00748).
T2 construct: Human Factor XIIa (Enzyme Research Laboratories) was incubated; purchased Enzyme Research Laboratories
T2 sequence (P00748 373-615 limits assumed): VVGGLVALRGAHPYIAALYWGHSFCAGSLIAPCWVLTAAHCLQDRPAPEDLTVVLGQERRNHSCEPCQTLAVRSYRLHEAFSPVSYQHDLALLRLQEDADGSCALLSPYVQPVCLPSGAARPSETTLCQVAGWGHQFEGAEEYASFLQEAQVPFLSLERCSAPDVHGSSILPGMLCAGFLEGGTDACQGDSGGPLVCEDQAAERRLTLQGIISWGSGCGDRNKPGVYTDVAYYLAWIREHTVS
T2 sequence (P00748 20-372 partner limits assumed): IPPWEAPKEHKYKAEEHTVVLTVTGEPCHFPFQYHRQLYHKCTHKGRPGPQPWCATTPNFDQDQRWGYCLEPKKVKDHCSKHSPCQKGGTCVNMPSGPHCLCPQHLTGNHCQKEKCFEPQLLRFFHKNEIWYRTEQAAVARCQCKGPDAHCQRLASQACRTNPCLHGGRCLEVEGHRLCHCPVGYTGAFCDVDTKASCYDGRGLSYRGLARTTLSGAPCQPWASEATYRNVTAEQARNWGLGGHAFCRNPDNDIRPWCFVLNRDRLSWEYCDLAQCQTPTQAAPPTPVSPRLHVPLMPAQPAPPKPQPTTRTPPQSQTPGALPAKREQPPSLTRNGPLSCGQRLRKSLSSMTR
Put plainly: Determination of FXIIa inhibitory activity in vitro (fluorogenic substrate H-DPro-Phe-Arg-AFC). In kind it is biochemical. The conditions noted are these: 25° C., residual enzyme activity (initial rate).

T1 sequence (P03951 388-625 limits assumed): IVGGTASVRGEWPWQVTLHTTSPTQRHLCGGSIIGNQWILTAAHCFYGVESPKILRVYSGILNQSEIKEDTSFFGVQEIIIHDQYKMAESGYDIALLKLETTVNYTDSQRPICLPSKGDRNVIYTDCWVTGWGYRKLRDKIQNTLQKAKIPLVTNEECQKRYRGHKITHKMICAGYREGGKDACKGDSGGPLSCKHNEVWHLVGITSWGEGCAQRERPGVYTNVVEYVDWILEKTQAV
T1 sequence (P03951 19-387 partner limits assumed): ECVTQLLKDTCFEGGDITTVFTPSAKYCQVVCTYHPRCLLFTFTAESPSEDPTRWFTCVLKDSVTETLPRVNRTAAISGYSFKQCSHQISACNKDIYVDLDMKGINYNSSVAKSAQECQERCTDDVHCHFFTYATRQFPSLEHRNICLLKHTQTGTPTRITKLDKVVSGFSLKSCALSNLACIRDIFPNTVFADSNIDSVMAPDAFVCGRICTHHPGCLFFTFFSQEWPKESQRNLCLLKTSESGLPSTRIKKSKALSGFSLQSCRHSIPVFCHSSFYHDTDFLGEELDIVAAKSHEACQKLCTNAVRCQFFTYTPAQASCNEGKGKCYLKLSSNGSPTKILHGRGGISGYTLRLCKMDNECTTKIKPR

In general, IC50 refers to the concentration at which inhibition is half-maximal. The low end stands for greater potency in that assay, the high end for weaker potency in that assay. Consider `CC(C)(C)OC(=O)N1CCC(Cn2nc(Cl)cc2C(=O)NCc2ccc3c(N)nccc3c2)CC1` [Example 35.01], for which the IC50 against Human FXIa was more than 40 µM; on Human Factor XIIa, 10 to 40 µM.

Take `Nc1nccc2cc(CNC(=O)c3cc(Cl)nn3CC3CCNCC3)ccc12` [Example 35.02]: the IC50 against Human FXIa is more than 40 µM; on Human Factor XIIa, 3 to 10 µM.

For `CCN1CCC(Cn2nc(Cl)cc2C(=O)NCc2ccc3c(N)nccc3c2)CC1` [Example 35.03], the figures for the IC50 against Human FXIa and on Human Factor XIIa were more than 40 µM and 3 to 10 µM, respectively.

On to `CN1CCC(CCn2nc(Cl)cc2C(=O)NCc2ccc3c(N)nccc3c2)CC1` [Example 35.04, N-((1-Aminoisoquinolin-6-yl)methyl)-3-chloro-1-(2-(1-methylpiperidin-4-yl)ethyl)-1H-pyrazole-5-carboxamide], for which the IC50 is more than 40 µM at Human FXIa and less than 1 µM against Human Factor XIIa.

For the compound `Nc1nccc2cc(CNC(=O)c3cc(C4CC4)nn3CC3CCN(c4ccncc4)CC3)ccc12` [Example 35.05], the IC50 against Human FXIa was 31.7 µM; against Human Factor XIIa, 3 to 10 µM.

As to `Cc1cc(C(=O)NCc2ccc3c(N)nccc3c2)n(CC2CCN(c3ccncc3)CC2)n1` [Example 35.06], the IC50 against Human FXIa was more than 40 µM; at Human Factor XIIa, 10 to 40 µM.

For the compound `CN1CCC(CCn2nccc2C(=O)NCc2ccc3c(N)nccc3c2)CC1` [Example 35.07], the IC50 against Human FXIa was more than 40 µM; on Human Factor XIIa it was 1 to 3 µM.

Consider `CCn1c(C(=O)NCc2ccc3c(N)nccc3c2)cc(C)c1CN1CCN(c2ccncc2)CC1` [Example 51.02, N-[(1-Amino-6-isoquinolyl)methyl]-1-ethyl-4-methyl-5-[[4-(4-pyridyl)piperazin-1-yl]methyl]pyrrole-2-carboxamide], for which the IC50 against Human FXIa is 12.4 µM; against Human Factor XIIa, 10 to 40 µM.

On to `CCc1cc(C(=O)NCc2ccc3c(N)nccc3c2)sc1CN1CCN(c2ccncc2)CC1` [Example 51.03], for which the IC50 at Human FXIa was 20.5 µM; against Human Factor XIIa, 3 to 10 µM.

As for `Cc1cc(C(=O)NCc2ccc3c(N)nccc3c2)nn1CC1CCN(c2ccncc2)CC1` [Example 51.04], the IC50 at Human FXIa was more than 40 µM; on Human Factor XIIa, 3 to 10 µM.

As to `CN1CCC(CCn2nc(C(=O)NCc3ccc4c(N)nccc4c3)cc2Cl)CC1` [Example 51.05, N-((1-Aminoisoquinolin-6-yl)methyl)-5-chloro-1-(2-(1-methylpiperidin-4-yl)ethyl)-1H-pyrazole-3-carboxamide], the IC50 is more than 40 µM against Human FXIa and less than 1 µM against Human Factor XIIa.

In the case of `COCc1c(C(=O)NCc2cnc3[nH]cc(Cl)c3c2)cnn1Cc1cc2c(cc1F)CCN(C)C2` [Example 69.01, N-((3-Chloro-1H-pyrrolo[2,3-b]pyridin-5-yl)methyl)-1-((6-fluoro-2-methyl-1,2,3,4-tetrahydroisoquinolin-7-yl)methyl)-5-(methoxymethyl)-1H-pyrazole-4-carboxamide], the IC50 against Human FXIa was more than 40 µM; at Human Factor XIIa it was 1 to 3 µM.

For `CN1CCC(CNc2nccc3c2C(=O)N(Cc2ccc4c(N)nccc4c2)C3)CC1` [Example 82.01, 2-((1-Aminoisoquinolin-6-yl)methyl)-4-(((1-methylpiperidin-4-yl)methyl)amino)-1,2-dihydro-3H-pyrrolo[3,4-c]pyridin-3-one], the IC50 was more than 40 µM against Human FXIa and 10 to 40 µM at Human Factor XIIa.
